These results are taken from patent EP0511003B1, “Superactive GRF analogs” (ELI LILLY AND COMPANY, priority 1991, dated 1992).

In test [1] the target is T1, rat primary pituitary cells (Rattus norvegicus, UniProt Q02644).
T1 sequence (Q02644 23-464): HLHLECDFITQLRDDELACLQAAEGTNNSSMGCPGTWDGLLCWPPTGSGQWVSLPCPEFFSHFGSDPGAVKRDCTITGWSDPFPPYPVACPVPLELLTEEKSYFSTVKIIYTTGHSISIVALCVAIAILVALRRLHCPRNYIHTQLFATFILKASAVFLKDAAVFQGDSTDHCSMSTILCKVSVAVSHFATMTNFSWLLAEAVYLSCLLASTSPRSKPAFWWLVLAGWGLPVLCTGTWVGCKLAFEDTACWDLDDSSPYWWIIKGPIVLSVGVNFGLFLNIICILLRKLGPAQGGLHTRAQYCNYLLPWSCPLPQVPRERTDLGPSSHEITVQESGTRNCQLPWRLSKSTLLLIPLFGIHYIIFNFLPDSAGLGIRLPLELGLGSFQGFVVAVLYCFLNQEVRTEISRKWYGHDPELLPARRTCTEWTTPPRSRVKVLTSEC
In words: Growth hormone release in vitro from rat primary pituitary cells. As to conditions: growth hormone released into media after exposure to 7 doses of secretagogue for 3h. The test is classed as cell-based. Here is the method:
The polypeptide compounds of the invention may be assayed in numerous systems. One in vivo assay is carried out in sodium pentobarbital-anesthetized rats. Wehrenberg et al., Biochem. Biophys. Res. Commun. 109:382 (1982). Growth hormone release is measured in vitro with rat anterior pituitary cells. Heiman et al., Endocrinol. 116:410 (1985).

The test system of a further test is barrows. Description: In vivo effects in barrows injected subcutaneously or intravenously 3 times daily (urinary urea nitrogen excretion and serum parameters). The settings on record: for GH: serum Growth Hormone level; for GH / TRIG. / BUN / FFA / GLUCOSE / INSULIN: 12th day of treatment; for GH / TRIG. / BUN / FFA / GLUCOSE / INSULIN / UREA: means; for TRIG.: serum triglycerides; for BUN / FFA / GLUCOSE / INSULIN: serum; for UREA: urinary urea nitrogen excretion, injected 3 times daily. Here is the method:
A carrier solution was prepared by dissolving 1.38 g of Na2HP04 and 1.0g PSA with pyrogen free H2O to a final volume of 1 litre, pH approximately 5.1. 27.4 mg The p-methyl hippuroyl pGRF (2-76)OH prepared in substantial accordance with the teaching of Example 4.B. above was added to 64 ml of the carrier solution to achieve a final concentration of […].
Twenty crossbred barrows, averaging approximately 72 kg, with an indwelling catheter which had been surgically inserted into the femoral vein, were used to determine the effects of p-methyl hippuroyl pGRF (2-76)OH. A formulation of the p-methyl hippuroyl pGRF (2-76)OH was prepared in substantial accordance with the teaching of Example 11 above and injected 3 times daily at a rate of 10.0 µg/kg/inj., either intravenously (I.V.) or subcutaneously (S.Q.). The barrows were fed 2000 g of an 18.5% crude protein corn-soy diet per day, equally divided between 2 feedings at 8:00 a.m. and 4:00 p.m. The barrows were injected at 8:00 a.m., 4:00 p.m., and 12:00 p.m. Urinary urea nitrogen excretion data were collected during 1 5day control period, 4 3-day treatment periods, and 2 3-day periods after treatments were stopped. Thirty blood serum samples were collected during a 24-hour period on the 12th day of treatment. The serum samples were assayed for GH, BUN, glucose, insulin, FFA, and triglycerides.

Where [2] appears, read: Table 1, bGRF analogs, EC50 is the calculated median effective dose.
[3] abbreviates: injected 3 times daily at a rate of 30.0 µg/kg/d, versus control barrows.

Marks after values point to notes of the source that are not given here.

The EC50 is the concentration that produces a half-maximal response. Turning to Hippuroyl-1 bGRF(2-77)0H, in test [1] (setting [2]), the half-maximal effective concentration (EC50) is 0.86 nM.
As to Hippuroyl-1 pGRF(2-76)OH, the EC50 in test [1] (Table 2, pGRF(2-76)OH analogs) stood at 0.28 nM.
In the case of bGRF (1-77)0H [reference compound], in test [1] (setting [2]), the EC50 is 0.59 nM.
For the substance “des Tyr-1 pGRF(2-76)0H [reference compound]”, the EC50 in test [1] (Table 2, pGRF(2-76)OH analogs) was 95 nM.
Turning to n-Phenylmalonamindoyl bGRF(2-77)0H, the EC50 in test [1] (setting [2]) is 0.19 nM.
On to p-Chloro Hippuroyl bGRF(2-77)OH, for which the EC50 in test [1] (setting [2]) is 0.19 nM.
On to p-Fluoro Hippuroyl bGRF(2-77)0H, for which the EC50 in test [1] (setting [2]) was 0.14 nM.
With p-Hydroxy Hippuroyl bGRF(2-77)0H, the EC50 in test [1] (setting [2]) was 0.33 nM.
On the same count and under the same terms, with p-Methyl Hippuroyl bGRF(2-77)OH the figure was 0.05 nM.
As for p-Methyl Hippuroyl pGRF(2-76)OH, in test [1] (Table 2, pGRF(2-76)OH analogs), the EC50 is 0.06 nM. Besides, the EC50 in test [1] (Table 3, p-Methyl Hippuroyl-1 pGRF analogs of different length) worked out at 0.06 nM. Besides, in the test on barrows (setting [3]), the “increase in serum GH levels” value amounted to 4 fold, the “reduction in serum BUN levels” value was found to be 54% and the “reduction in urinary urea nitrogen excretion” value was found to be 41%. In the test on barrows (IV 30 µg/kg/d), the GH was 9.9^b ng/ml, the TRIG. was 35.3^b mg/dla, the BUN was 7.0^b mg/dl and the FFA is recorded as 97.3^b µM/la. In addition, in the test with barrows (IV 30 µg/kg/d), the GLUCOSE is 132.7^b mg/dl, the INSULIN is recorded as 76.8^b µu/ml and the UREA is 16.3^b g/day. In addition, in the test on barrows (SQ 30 µg/kg/d), the GH is 8.9^b ng/ml, the TRIG. was 32.5^ab mg/dla, the BUN was 7.5^b mg/dl and the FFA is listed as 97.5^b µM/la. Also, in the test on barrows (SQ 30 µg/kg/d), the GLUCOSE is on record as 147.3^b mg/dl, the INSULIN is 112.9^C µu/ml and the UREA is listed as 16.4^b g/day. Moreover, the “depression in urinary urea nitrogen excretion prolonged after treatments were stopped” value in the test on barrows (subcutaneously injected barrows) fell in the range of 2 to 3 days.
On to “p-Methyl Phenylmalonamindoyl pGRF(2-76)OH”, for which the EC50 in test [1] (Table 2, pGRF(2-76)OH analogs) turned out to be 0.06 nM.
Take p-Nitro Hippuroyl bGRF (2-77)0H: the EC50 in test [1] (setting [2]) is 0.51 nM.
